Assay results: publication PMC6216040, “Repurposing of an old drug: In vitro and in vivo efficacies of buparvaquone against Echinococcus multilocularis” (International Journal for Parasitology: Drugs and Drug …, 2018)
Like-named read-outs stand apart in the source and are kept apart here.

System: E. multilocularis metacestodes
Assay: PGI-assay: drug-induced damage on in vitro cultured metacestodes (Pathogen Box screening cascade and EC50)
Format: cell-based, Echinococcus multilocularis
Conditions: for PGI release, % of the Tx-100 control, 5d / PGI release, % of the Tx-100 control, 12d / cytotoxicity at 10 µM: 10 µM, singlets; for cytotoxicity at 10 µM / PGI release, % of Tx-100 control at 10 µM: Echinococcus multilocularis
[1] = 120 h, 5 days of incubation, read-out: PGI release, % of the Tx-100 control, 5d
[2] = 288 h, 12 days of incubation, read-out: PGI release, % of the Tx-100 control, 12d

| Compound | PGI release, % of the Tx-100 control, 5d (5 days of incubation) [%] | PGI release, % of the Tx-100 control, 12d (12 days of incubation) [%] | other results |
| --- | --- | --- | --- |
| CCC(NC(=O)c1ccccc1NC(=O)c1ccc(C)cc1)C(=O)OC (centres unmarked) [MMV019551] | -0.56 | 0.21 | – |
| COc1ccccc1OCCCCn1c(C2CC2)nc2ccccc21 [MMV676474] | 1.01 | 0.22 | – |
| COc1cccc(NC(=O)c2c(NC(=O)c3cccnc3)sc3c2CCC3)c1 [MMV228911] | 6.25 | 18.91 | – |
| Cc1ccc(S(=O)(=O)Nc2ccc(CN3CCN(C(=O)c4cccc(C#N)c4)CC3)cc2)cc1 [MMV689028] | 0.59 | -0.96 | – |
| Cc1cc(C)n2nc(C(=O)Nc3cc(C(F)(F)F)ccc3N3CCOCC3)nc2n1 [MMV019087] | -0.91 | -0.17 | – |
| CC(=O)Nc1ccc(-c2noc(CC3CCCN(Cc4cccc(F)c4C)C3)n2)cc1 (centres unmarked) [MMV689061] | 2.22 | 1.98 | – |
| Cc1nc2ccccn2c1C(=O)NCc1ccc(Cl)cc1 [MMV012074] | 0.39 | -0.51 | – |
| Cc1cc(Cl)c(S(=O)(=O)N2CCCC2)cc1OCC(=O)NC1CCCCC1 [MMV006833] | 0.0374 | -0.28 | – |
| CC(C)/N=c1\cc2n(-c3ccc(Cl)cc3)c3ccccc3nc-2cc1Nc1ccc(Cl)cc1 [MMV687800, Clofazimine, reference compound] | – | – | cytotoxicity at 10 µM [1]: 26.6%; PGI release, % of Tx-100 control at 10 µM (120 h, confirmatory screening at 10 µM in triplicates, 5 days of incubation, values as % of Tx-100 control, read-out: PGI release, % of Tx-100 control, average, 5d): -0.59%; cytotoxicity at 10 µM [2]: 65.6%; PGI release, % of Tx-100 control at 10 µM (288 h, confirmatory screening at 10 µM in triplicates, 12 days of incubation, values as % of Tx-100 control, read-out: PGI release, % of Tx-100 control, average, 12d): 3.89% |
| CC(=O)NC[C@H]1CN(c2ccc(-c3ccc(CNCc4cnn[nH]4)cc3)c(F)c2)C(=O)O1 [MMV688327, Radezolid, reference compound] | – | – | cytotoxicity at 10 µM [1]: -0.89%; cytotoxicity at 10 µM [2]: -1.52% |
| FC(F)(F)c1cnc(Sc2nnc(-c3ccncc3)o2)c(Cl)c1 [MMV011765] | 0.33 | 0.66 | – |
| CC(C)(C)n1nc(-c2ccccc2)c2c(N)ncnc21 [MMV688548] | -2.51 | 1.17 | – |
| Cc1cc(C)nc(-n2nc(C)cc2Nc2ccccc2)n1 [MMV062221] | -5.83 | 1.28 | – |
| O=C(C(Cc1c[nH]c2ccccc12)NS(=O)(=O)c1ccc(Cl)cc1)N1CCCCC1 (centres unmarked) [MMV085210] | -0.40 | 0.0121 | – |
| Nc1ncnc2c1c(-c1cnc3ccccc3c1)nn2CC1CCNCC1 [MMV688411] | -0.63 | -1.19 | – |
| O=C(Nc1cccnc1)c1c(O)c2cccc3c2n(c1=O)CC3 [MMV676395] | -2.29 | 0.06 | – |
| CC1(C)OB(O)c2ccc(C3=NOC(c4cc(Cl)c(F)c(Cl)c4)(C(F)(F)F)C3)cc21 (centres unmarked) [MMV687775] | 11.08 | -0.22 | – |
| O=C(C1CCCCC1)N1CC(=O)N2CCc3ccccc3C2C1 (centres unmarked) [MMV002529, Praziquantel, reference compound] | – | – | cytotoxicity at 10 µM [1]: -0.87%; cytotoxicity at 10 µM [2]: -0.49% |
| N=C(N)c1ccc(-c2cc(-c3ccccc3)on2)cc1 [MMV688514] | -2.10 | 0.39 | – |
| CC(=O)N1CCc2cc3nc(C)cc(C)c3cc21 [MMV054312] | 0.77 | -0.65 | – |
| CC(C)(C)OC(=O)N1CCN(c2nccc(-c3ccc(-c4ccc(Cl)cc4)s3)n2)CC1 [MMV688416] | -0.30 | -2.84 | – |
| CCN(CC)CCCCCCNc1cc(OC)cc2c(C)ccnc12 [MMV000063, Sitamaquine, reference compound] | – | – | cytotoxicity at 10 µM [1]: -0.0141%; cytotoxicity at 10 µM [2]: 10.8% |
| CN1CCN(c2nccc3[nH]c(-c4cccc(F)c4)cc23)CC1 [MMV393144] | -0.30 | 0.40 | – |
| CCN(CC)CCCN1CCN(C(=O)c2cccc(-c3noc(C(F)(F)F)n3)c2)CC1 [MMV022236] | -0.66 | -2.62 | – |
| COc1cccc(OCC(=O)c2ccc(Br)cc2)c1 [MMV676379] | -3.68 | -3.36 | – |

| Compound | PGI release, % of the Tx-100 control, 5d (5 days of incubation) [%] | PGI release, % of the Tx-100 control, 12d (12 days of incubation) [%] | other results |
| --- | --- | --- | --- |
| O=C(NC1CCN(c2ccnc3ccccc23)C1)c1cccc(C(F)(F)F)c1 (centres unmarked) [MMV023388] | -0.73 | -1.23 | – |
| N#Cc1nc(-c2ccccc2F)oc1NCCc1ccccc1 [MMV676384] | 0.0223 | -0.18 | – |
| O=C(Nc1ccc(N2CCNCC2)nc1)c1oc(-c2ccccc2)nc1C(F)(F)F [MMV024937] | 14.66 | 18.16 | – |
| O=C(Nc1ccc(F)c(-c2nc3ncc(-c4ccccc4)cc3[nH]2)c1)N1CCCC1 [MMV688372] | 1.21 | 0.82 | – |
| Cn1ccnc1CNCCS(=O)(=O)c1cccc(Nc2ccc(-c3cccc(F)c3)cn2)c1 [MMV688466] | -0.60 | -2.11 | – |
| Brc1c(-c2ccc3c(c2)OCO3)nc2ncccn12 [MMV676377] | 0.59 | -0.19 | – |
| COc1cccc(-n2nnnc2S(=O)(=O)Cc2ccccc2)c1 [MMV676388] | 12.00 | 14.67 | – |
| CNCCC(Oc1ccc(C(F)(F)F)cc1)c1ccccc1 (centres unmarked) [MMV001561, Fluoxetine, reference compound] | – | – | cytotoxicity at 10 µM [1]: -1.25%; cytotoxicity at 10 µM [2]: -5.98% |
| OCc1ccc(-c2cncc(Nc3cccc(Cl)c3)c2)cc1 [MMV026468] | 9.97 | 54.98 | PGI release, % of Tx-100 control, average, 5d (1 µM, triplicates, 5 days of incubation): 0.57%; PGI release, % of Tx-100 control, average, 12d (1 µM, triplicates, 12 days of incubation): -1.50%; activity in the screen at 10 μM (confirmed in triplicates, >20% relative PGI release) (10 μM, 5 and 12 days): active; PGI release, % of Tx-100 control, average, 5d (confirmatory screening at 10 µM in triplicates, 5 days of incubation, values as % of Tx-100 control): 0.62%; PGI release, % of Tx-100 control, average, 12d (confirmatory screening at 10 µM in triplicates, 12 days of incubation, values as % of Tx-100 control): 52.89% |
| COc1cc(NC(C)CCCN)c2ncccc2c1 (centres unmarked) [MMV000023, Primaquine, reference compound] | – | – | cytotoxicity at 10 µM [1]: -0.23%; cytotoxicity at 10 µM [2]: 17.6% |
| CCCNC(=O)N1CCC2(CC1)CC(=O)c1cc(C)ccc1O2 [MMV085230] | -0.40 | -0.0743 | – |
| FC(F)(F)c1cc(NCCc2ccccc2)nc(-c2ccccn2)n1 [MMV659010] | 0.61 | 3.66 | – |
| NCC[C@H](O)C(=O)N[C@@H]1C[C@H](N)[C@@H](O[C@H]2O[C@H](CN)[C@@H](O)[C@H](O)[C@H]2O)[C@H](O)[C@H]1O[C@H]1O[C@H](CO)[C@@H](O)[C@H](N)[C@H]1O [MMV687796, Amikacin, reference compound] | – | – | cytotoxicity at 10 µM [1]: -1.34%; cytotoxicity at 10 µM [2]: -4.62% |
| O=C1O[C@@H](CO)CN1c1cc(F)c(C2=CCN(Cc3ccccc3)CC2)c(F)c1 [MMV687729] | -0.40 | -0.63 | – |
| CCOc1ccc2cc(-c3nn(C(C)(C)C)c(N)c3C(N)=O)cnc2c1 [MMV688853] | -1.41 | -6.45 | – |
| O=C(Nc1nnc(-c2ccc(Cl)s2)o1)c1ccc(Cl)s1 [MMV676501] | 1.15 | 0.52 | – |
| Cc1ccc(NC(=O)CC2COc3ccccc3O2)cc1Cl (centres unmarked) [MMV676431] | -2.82 | 0.24 | – |
| CON=C(C(=O)OC)c1ccccc1CON=C(C)c1cccc(C(F)(F)F)c1 [MMV688754, Trifloxystrobin] | – | – | cytotoxicity at 10 µM [1]: -1.92%; cytotoxicity at 10 µM [2]: -5.74% |
| c1ccc(-c2[nH]c3ccccc3c2C(c2ccccn2)N2CCCC2)cc1 (centres unmarked) [MMV688762] | 0.82 | 0.77 | – |
| O=C([C@@H](c1ccc(Cl)cc1)c1cccnc1)N1CCN(c2ccc(C(F)(F)F)cc2)CC1 [MMV689244] | -0.13 | -0.53 | – |
| CCc1nc2ccc(Cl)cn2c1C(=O)NCc1ccc(N2CCC(c3ccc(OC(F)(F)F)cc3)CC2)cc1 [MMV687696, Telacebec, Q203, reference compound] | -1.48 | 7.51 | – |
| CCCn1c(NC(=O)c2ccc3ccccc3n2)nc2ccccc21 [MMV1030799] | 3.64 | 13.68 | – |
| O=C(Nc1ccccc1-c1nc2c(C(=O)O)cccc2o1)c1ccccc1 [MMV676162] | 0.15 | 0.13 | – |
| CS(=O)(=O)N1CCC(CCn2nc(Cc3cccc4ccccc34)c3c(N)ncnc32)CC1 [MMV688470] | 1.33 | 2.31 | – |
| O=C(NCCN1CCCC1)c1cc(NCCN2CCOCC2)nc2ccc(Cl)cc12 [MMV634140] | 0.01 | -0.0759 | – |
